These results are taken from the NIST ThermoML archive (doi:10.1016/j.jct.2017.01.007).

The conditions of this series: Pendant drop shape.

“And” between values parts separate entries of the source, which are not always exact repeats. Equal values may be shown once. ± gives the expanded uncertainty stated by the source.

`O` [water]: the surface tension liquid-gas – broadly, the work needed to enlarge the surface of a liquid by unit area – was 74.8 ± 2.3 mN/m and 74.83 ± 2.1 mN/m (283.2 K); 73.65 ± 2.3 mN/m and 73.67 ± 2.1 mN/m (288.2 K); 73.07 ± 2.1 mN/m and 73.03 ± 2.1 mN/m (293.2 K); 72.21 ± 2.2 mN/m and 72.13 ± 2.1 mN/m (298.2 K).
